Compound in this test: Nc1ncnc2c1ncn2[C@@H]1O[C@H](COP(=O)(O)OP(=O)(O)OP(=O)(O)O)[C@@H](O)[C@H]1O [adenosine triphosphate]
Briefly: pEC50 of ATP-induced change in protein thermal stability (2D-TPP). The gist of the method: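 pEC50 was obtained by fitting dose-response curves for each replicate over pairs of adjacent temperatures, and hits were assigned using permutation-based false discovery rate control. The input came from Jurkat crude lysate treated with five concentrations including vehicle (10 min, room temperature), heated at 12 temperatures from 42 to 63.9 °C for 3 min, then given NP40 and benzonase (60 min, 4 °C). After ultracentrifugation, soluble protein was quantified by TMT LC-MS/MS as median-normalised fold changes versus vehicle per temperature, across three independent experiments.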

Where only a bound is given, the exact number is not on record here.
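Also: lysate dosed with Na-ATP at 0 0.005 0.05 0.5 and 2 mM.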

Sequence of UniProt O00232 (O00232 whole entry): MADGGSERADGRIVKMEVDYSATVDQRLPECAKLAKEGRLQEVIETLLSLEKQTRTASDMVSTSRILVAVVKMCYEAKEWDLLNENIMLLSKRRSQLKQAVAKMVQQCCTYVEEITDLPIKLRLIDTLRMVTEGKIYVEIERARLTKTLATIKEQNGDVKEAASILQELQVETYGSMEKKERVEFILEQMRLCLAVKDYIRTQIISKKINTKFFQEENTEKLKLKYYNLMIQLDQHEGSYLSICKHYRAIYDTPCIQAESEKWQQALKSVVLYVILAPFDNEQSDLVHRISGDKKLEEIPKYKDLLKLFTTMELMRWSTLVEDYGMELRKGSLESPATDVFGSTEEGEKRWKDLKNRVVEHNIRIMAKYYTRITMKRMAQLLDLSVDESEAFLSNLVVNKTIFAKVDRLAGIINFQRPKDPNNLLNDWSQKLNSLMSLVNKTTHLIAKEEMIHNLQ
Sequence of UniProt Q16401 (Q16401 whole entry): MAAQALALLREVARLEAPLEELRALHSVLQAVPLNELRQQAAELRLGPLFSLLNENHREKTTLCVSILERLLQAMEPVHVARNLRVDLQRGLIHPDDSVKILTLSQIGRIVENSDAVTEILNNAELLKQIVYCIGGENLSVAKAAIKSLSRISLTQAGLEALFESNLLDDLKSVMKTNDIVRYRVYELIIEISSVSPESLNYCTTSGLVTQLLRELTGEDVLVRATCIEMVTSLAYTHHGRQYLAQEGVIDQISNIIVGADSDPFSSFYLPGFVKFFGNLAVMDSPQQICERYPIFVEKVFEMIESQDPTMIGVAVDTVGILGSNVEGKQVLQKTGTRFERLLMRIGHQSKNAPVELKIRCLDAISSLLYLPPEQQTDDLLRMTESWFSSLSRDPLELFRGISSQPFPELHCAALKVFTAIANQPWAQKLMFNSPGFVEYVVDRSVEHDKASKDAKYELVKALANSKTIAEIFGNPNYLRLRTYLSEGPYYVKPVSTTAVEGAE
Sequence of UniProt Q15008 (Q15008 whole entry): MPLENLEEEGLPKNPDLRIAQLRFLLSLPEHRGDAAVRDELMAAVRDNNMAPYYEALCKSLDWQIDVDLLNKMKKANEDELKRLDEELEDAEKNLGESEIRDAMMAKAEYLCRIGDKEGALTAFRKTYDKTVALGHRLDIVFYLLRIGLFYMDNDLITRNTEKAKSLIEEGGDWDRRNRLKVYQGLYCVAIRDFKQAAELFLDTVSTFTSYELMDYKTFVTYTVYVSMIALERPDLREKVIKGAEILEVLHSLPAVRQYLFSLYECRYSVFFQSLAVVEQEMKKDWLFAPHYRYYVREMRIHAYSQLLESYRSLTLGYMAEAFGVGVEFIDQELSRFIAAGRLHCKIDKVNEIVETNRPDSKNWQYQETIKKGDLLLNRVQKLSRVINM
Sequence of UniProt Q9UNM6 (Q9UNM6 whole entry): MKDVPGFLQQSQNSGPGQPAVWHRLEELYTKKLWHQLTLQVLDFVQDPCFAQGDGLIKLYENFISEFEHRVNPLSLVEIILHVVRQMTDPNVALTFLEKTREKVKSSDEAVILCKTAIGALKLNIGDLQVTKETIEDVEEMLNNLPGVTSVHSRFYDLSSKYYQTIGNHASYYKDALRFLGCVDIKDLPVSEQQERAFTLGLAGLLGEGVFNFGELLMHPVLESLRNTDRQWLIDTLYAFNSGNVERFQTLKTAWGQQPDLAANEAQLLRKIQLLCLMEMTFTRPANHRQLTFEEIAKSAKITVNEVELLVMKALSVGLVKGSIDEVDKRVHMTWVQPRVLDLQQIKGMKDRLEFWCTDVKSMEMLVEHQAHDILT
Sequence of UniProt Q8TDP1 (Q8TDP1 whole entry): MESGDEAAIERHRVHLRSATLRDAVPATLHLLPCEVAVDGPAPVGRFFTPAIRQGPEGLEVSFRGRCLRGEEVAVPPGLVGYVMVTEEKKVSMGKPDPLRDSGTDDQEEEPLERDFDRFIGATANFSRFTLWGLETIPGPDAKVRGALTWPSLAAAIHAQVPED
Sequence of UniProt P51665 (P51665 whole entry): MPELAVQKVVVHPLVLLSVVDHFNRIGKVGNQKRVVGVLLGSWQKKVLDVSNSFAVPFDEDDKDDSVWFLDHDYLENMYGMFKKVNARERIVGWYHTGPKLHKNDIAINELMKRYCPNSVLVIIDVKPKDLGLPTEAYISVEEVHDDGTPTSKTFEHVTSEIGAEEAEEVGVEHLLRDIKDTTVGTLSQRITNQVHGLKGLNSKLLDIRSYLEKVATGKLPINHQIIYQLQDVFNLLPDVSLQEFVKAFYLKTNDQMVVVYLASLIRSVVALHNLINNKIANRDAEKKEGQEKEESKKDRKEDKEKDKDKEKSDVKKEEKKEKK
Sequence of UniProt Q06609 (Q06609 whole entry): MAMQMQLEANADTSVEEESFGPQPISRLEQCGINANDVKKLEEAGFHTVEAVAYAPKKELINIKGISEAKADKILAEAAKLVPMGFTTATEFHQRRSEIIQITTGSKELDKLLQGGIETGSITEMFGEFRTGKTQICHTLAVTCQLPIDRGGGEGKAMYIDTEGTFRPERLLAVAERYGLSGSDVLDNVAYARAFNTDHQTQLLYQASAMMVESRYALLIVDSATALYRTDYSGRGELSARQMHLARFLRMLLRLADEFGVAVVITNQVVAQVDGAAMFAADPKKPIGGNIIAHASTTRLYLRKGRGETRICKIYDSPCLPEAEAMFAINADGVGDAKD
Sequence of UniProt Q5T8P6 (Q5T8P6 whole entry): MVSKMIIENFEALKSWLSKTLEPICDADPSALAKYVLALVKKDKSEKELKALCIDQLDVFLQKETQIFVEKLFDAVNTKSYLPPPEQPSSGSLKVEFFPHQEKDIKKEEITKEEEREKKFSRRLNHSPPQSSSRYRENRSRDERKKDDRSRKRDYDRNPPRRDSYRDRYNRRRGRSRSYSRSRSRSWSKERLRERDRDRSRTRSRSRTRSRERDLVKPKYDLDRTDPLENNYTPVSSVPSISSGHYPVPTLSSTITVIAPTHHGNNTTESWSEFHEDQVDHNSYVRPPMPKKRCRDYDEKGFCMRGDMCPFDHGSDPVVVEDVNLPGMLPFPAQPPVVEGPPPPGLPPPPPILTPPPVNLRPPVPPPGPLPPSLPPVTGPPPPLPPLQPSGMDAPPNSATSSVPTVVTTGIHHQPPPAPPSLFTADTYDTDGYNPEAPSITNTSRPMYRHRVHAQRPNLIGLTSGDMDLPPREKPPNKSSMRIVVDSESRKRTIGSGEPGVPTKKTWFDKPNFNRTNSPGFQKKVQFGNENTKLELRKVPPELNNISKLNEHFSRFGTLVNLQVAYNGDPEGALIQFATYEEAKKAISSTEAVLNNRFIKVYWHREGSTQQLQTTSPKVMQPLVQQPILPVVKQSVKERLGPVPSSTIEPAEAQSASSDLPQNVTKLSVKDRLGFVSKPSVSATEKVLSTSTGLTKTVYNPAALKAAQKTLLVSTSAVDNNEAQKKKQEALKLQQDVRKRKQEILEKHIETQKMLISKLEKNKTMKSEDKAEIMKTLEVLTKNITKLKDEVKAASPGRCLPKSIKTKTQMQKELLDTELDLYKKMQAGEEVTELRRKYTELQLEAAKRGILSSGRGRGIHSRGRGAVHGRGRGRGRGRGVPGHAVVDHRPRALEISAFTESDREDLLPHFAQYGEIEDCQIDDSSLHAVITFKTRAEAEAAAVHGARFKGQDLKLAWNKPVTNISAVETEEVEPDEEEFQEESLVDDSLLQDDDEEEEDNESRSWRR
Sequence of UniProt P24723 (P24723 whole entry, looked up): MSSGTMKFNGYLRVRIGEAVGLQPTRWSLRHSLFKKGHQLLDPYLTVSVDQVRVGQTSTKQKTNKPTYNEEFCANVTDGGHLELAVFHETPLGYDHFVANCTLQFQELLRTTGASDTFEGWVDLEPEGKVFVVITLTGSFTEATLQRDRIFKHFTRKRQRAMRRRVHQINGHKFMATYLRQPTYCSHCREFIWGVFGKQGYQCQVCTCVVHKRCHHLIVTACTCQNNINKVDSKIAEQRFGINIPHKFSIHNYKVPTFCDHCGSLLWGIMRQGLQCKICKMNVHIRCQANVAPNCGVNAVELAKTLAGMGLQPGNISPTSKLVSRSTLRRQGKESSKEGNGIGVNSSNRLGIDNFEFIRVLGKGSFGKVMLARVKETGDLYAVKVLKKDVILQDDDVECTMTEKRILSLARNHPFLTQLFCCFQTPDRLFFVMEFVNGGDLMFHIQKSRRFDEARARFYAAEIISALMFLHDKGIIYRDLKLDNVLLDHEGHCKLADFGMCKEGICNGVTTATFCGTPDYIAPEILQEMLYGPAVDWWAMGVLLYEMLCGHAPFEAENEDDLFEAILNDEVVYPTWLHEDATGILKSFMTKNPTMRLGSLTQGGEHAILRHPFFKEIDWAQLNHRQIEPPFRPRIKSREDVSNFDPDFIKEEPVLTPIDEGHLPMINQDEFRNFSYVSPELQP
Sequence of UniProt O43818 (O43818 whole entry): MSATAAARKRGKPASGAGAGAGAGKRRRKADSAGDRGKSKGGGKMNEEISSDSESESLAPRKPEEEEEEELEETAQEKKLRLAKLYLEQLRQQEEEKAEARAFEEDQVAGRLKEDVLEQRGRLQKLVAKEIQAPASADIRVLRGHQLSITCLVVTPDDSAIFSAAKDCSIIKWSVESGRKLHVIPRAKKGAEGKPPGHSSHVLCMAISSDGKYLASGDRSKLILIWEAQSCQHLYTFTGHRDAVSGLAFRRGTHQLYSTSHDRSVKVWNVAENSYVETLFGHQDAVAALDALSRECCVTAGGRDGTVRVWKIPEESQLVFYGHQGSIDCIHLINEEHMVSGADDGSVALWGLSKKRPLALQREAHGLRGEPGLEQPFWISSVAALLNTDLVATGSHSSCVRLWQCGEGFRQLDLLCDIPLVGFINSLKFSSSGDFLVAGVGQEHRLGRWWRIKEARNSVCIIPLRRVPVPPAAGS
Sequence of UniProt Q969G6 (Q969G6 whole entry): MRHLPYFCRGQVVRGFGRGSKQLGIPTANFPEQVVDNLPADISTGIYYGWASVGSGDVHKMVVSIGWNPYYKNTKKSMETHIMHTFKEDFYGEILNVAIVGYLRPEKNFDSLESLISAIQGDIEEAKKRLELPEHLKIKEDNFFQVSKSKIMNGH

In the case of “PPP3CB (effect direction: destabilized) (UniProt P16298)”, the pEC50 – broadly, the EC50 on a negative log10 scale, so that one unit is a factor of ten – worked out at 3.06.
Next, “PPP3CC (effect direction: destabilized) (UniProt P48454)”: 2.92; “PPT1 (effect direction: stabilized) (UniProt P50897)”: 3.3; “PRCP (effect direction: stabilized) (UniProt P42785)”: 2.94.
As for “PRDX6 (effect direction: stabilized) (UniProt P30041)”, the figure is below 2.7; as for “PRKAB1 (effect direction: stabilized) (UniProt Q9Y478)”, 3.22; as for “PRKACB (effect direction: stabilized) (UniProt P22694)”, 3.91.
Regarding “PRKAG1 (effect direction: stabilized) (UniProt P54619)”, the pEC50 stood at 3.27.
As for “PRKAR1B (effect direction: stabilized) (UniProt P31321)”, the figure is 3.85; as for “PRKAR2A (effect direction: stabilized) (UniProt P13861)”, 4.03; as for “PRKCH (effect direction: stabilized) (UniProt P24723)”, 3.5.
As to “PRKRIP1 (effect direction: destabilized) (UniProt Q9H875)”, the pEC50 is 2.81.
Next, “PRPF4B (effect direction: stabilized) (UniProt Q13523)”: 3.18; “PRPS2 (effect direction: stabilized) (UniProt P11908)”: 3.33; “PSMC2 (effect direction: stabilized) (UniProt P35998)”: 4.28.
On to “PSMC3 (effect direction: stabilized) (UniProt P17980)”, for which the pEC50 amounted to 4.02.
As for “PSMC4 (effect direction: stabilized) (UniProt P43686)”, the figure is 4.09; as for “PSMD1 (effect direction: stabilized) (UniProt Q99460)”, 4.35; as for “PSMD2 (effect direction: stabilized) (UniProt Q13200)”, 3.96.
In the case of “PSMD3 (effect direction: stabilized) (UniProt O43242)”, the pEC50 stood at 4.24.
As to “PSMD4 (effect direction: stabilized) (UniProt P55036)”, the negative-log EC50 (pEC50) came to 3.77.
Take “PSMD5 (effect direction: stabilized) (UniProt Q16401)”: the pEC50 came to 3.99.
Next, “PSMD6 (effect direction: stabilized) (UniProt Q15008)”: 4.15; “PSMD7 (effect direction: stabilized) (UniProt P51665)”: 4.16; “PSMD8 (effect direction: stabilized) (UniProt P48556)”: 4.12.
As for “PSMD11 (effect direction: stabilized) (UniProt O00231)”, the negative-log EC50 (pEC50) was 4.08.
As for “PSMD12 (effect direction: stabilized) (UniProt O00232)”, the figure is 4.29; as for “PSMD13 (effect direction: stabilized) (UniProt Q9UNM6)”, 4.14; as for “PTAR1 (effect direction: stabilized) (UniProt Q7Z6K3)”, below 2.7.
As for “PTBP1 (effect direction: stabilized) (UniProt P26599)”, the figure is 3.15; as for “PURA (effect direction: stabilized) (UniProt Q00577)”, 3.13.
As for “PURB (effect direction: stabilized) (UniProt Q96QR8)”, the figure is below 2.7; as for “PUS1 (effect direction: stabilized) (UniProt Q9Y606)”, 2.99; as for “PUS7 (effect direction: stabilized) (UniProt Q96PZ0)”, below 2.7.
Take “Q5JWF2|P63092 (effect direction: stabilized) (UniProt P63092+Q5JWF2)”: the negative-log EC50 (pEC50) is below 2.7.
As for “RAB3GAP2 (effect direction: stabilized) (UniProt Q9H2M9)”, the figure is 5.16; as for “RABGAP1 (effect direction: stabilized) (UniProt Q9Y3P9)”, below 2.7; as for “RABGEF1 (effect direction: stabilized) (UniProt Q9UJ41)”, 3.08.
For the target “RACGAP1 (effect direction: stabilized) (UniProt Q9H0H5)”, the negative logarithm of the EC50 (pEC50) is 3.69.
As for “RAD21 (effect direction: stabilized) (UniProt O60216)”, the figure is 3.6; as for “RAD51 (effect direction: stabilized) (UniProt Q06609)”, 3.65; as for “RAD51C (effect direction: stabilized) (UniProt O43502)”, 3.46.
As for “RAD54L2 (effect direction: stabilized) (UniProt Q9Y4B4)”, the figure is 3.3.
As for “RANGAP1 (effect direction: stabilized) (UniProt P46060)”, the figure is below 2.7; as for “RAP1GDS1 (effect direction: stabilized) (UniProt P52306)”, below 2.7; as for “RAPGEF1 (effect direction: destabilized) (UniProt Q13905)”, 2.88.
On to “RASSF5 (effect direction: stabilized) (UniProt Q8WWW0)”, for which the negative logarithm of the EC50 (pEC50) turned out to be 3.13.
As for “RB1 (effect direction: stabilized) (UniProt P06400)”, the figure is 3.07; as for “RBM26 (effect direction: stabilized) (UniProt Q5T8P6)”, 3.67.
Take “RBMX (effect direction: destabilized) (UniProt P38159)”: the pEC50 is below 2.7.
Next, “RDH14 (effect direction: stabilized) (UniProt Q9HBH5)”: 3.2; “RELA (effect direction: stabilized) (UniProt Q04206)”: below 2.7.
“RFK (effect direction: stabilized) (UniProt Q969G6)”: the negative logarithm of the EC50 (pEC50) turned out to be 4.07.
Next, “RFX1 (effect direction: stabilized) (UniProt P22670)”: below 2.7; “RIOK1 (effect direction: stabilized) (UniProt Q9BRS2)”: 3.11.
Consider “RIOK3 (effect direction: stabilized) (UniProt O14730)”, for which the pEC50 was 3.7.
Next, “RNASEH2C (effect direction: stabilized) (UniProt Q8TDP1)”: 2.76; “RNF20 (effect direction: stabilized) (UniProt Q5VTR2)”: below 2.7; “ROCK1 (effect direction: stabilized) (UniProt Q13464)”: 2.77.
Next, “RPA1 (effect direction: stabilized) (UniProt P27694)”: 3.58; “RPL10 (effect direction: destabilized) (UniProt P27635)”: 3.88; “RPL10A (effect direction: destabilized) (UniProt P62906)”: below 2.7.
Next, “RPL13 (effect direction: destabilized) (UniProt P26373)”: above 5.3; “RPL14 (effect direction: destabilized) (UniProt P50914)”: 3.99; “RPL17 (effect direction: destabilized) (UniProt P18621)”: 3.27.
Regarding “RPL18 (effect direction: destabilized) (UniProt Q07020)”, the pEC50 was below 2.7.
For “RPL27A (effect direction: destabilized) (UniProt P46776)”, the pEC50 amounted to 3.2.
As for “RPL28 (effect direction: destabilized) (UniProt P46779)”, the pEC50 amounted to 4.17.
As for “RPL34 (effect direction: destabilized) (UniProt P49207)”, the figure is 4.92; as for “RPN1 (effect direction: stabilized) (UniProt P04843)”, below 2.7; as for “RPS2 (effect direction: destabilized) (UniProt P15880)”, 3.82.
Regarding “RPS3 (effect direction: destabilized) (UniProt P23396)”, the pEC50 is below 2.7.
Next, “RPS3A (effect direction: destabilized) (UniProt P61247)”: 3.86; “RPS10 (effect direction: destabilized) (UniProt P46783)”: below 2.7.
Consider “RPSA (effect direction: stabilized) (UniProt P08865)”, for which the pEC50 is below 2.7.
Next, “RRP9 (effect direction: destabilized) (UniProt O43818)”: 2.98; “RRP15 (effect direction: destabilized) (UniProt Q9Y3B9)”: 3.51; “RSBN1L (effect direction: stabilized) (UniProt Q6PCB5)”: 3.21.
Turning to “SACM1L (effect direction: stabilized) (UniProt Q9NTJ5)”, the pEC50 worked out at 3.14.
Turning to “SAE1 (effect direction: stabilized) (UniProt Q9UBE0)”, the pEC50 was below 2.7.

These data come from the supplement of paper PMC6411743.
